From patent publication US6113907A, “Pharmaceutical grade St. John's Wort” (priority 1997, dated 2000)
Read-outs that look alike come from different tables or passages of the source.

Key:
Nitric oxide synthetase = experiment: nitric oxide synthetase binding (NOS), [3H] NOARG, rat brain membranes; conditions: 10^-4; 60 min, 100 µM
Experimental: The inhibition of MAOA enzymatic activity (MAOA) was determined using rat liver mitochondrial membranes as a partially purified enzyme source. […] The reaction involves the conversion of the substrate to [^14 C] 5-hydroxyl indoleacetaldehyde+NH4^+. In brief, the enzyme is preincubated with the substances and the subtype specific blocker deprenyl (at 300 nM) for 60 minutes at 37° C. in 100 mM KPO4 (pH 7.2). Substrate is added and incubated for an additional 10 minutes. The reaction is terminated by the addition of 0.5 ml of 2M citric acid. […] Nitric oxide synthetase activity was measured using a binding assay (NOS). The receptors were made by partial purification of material from rat brain membranes. The radioligand used was [^3 H] L-N^G -Nitro-Arginine (NOARG) at a final concentration of 5 nM. Non-specific binding was determined using 100 μM of NOARG. The assay reactions were carried out in 50 mM Tris-HCl (pH 7.4) for 60 minutes at 25° C.

[1] = mice; cited from earlier work
MAOA = biological target: T1, MAOA (Rattus norvegicus, UniProt P21396); experiment: NIMH/NovaScreen screen, MAOA; format: biochemical
T1 sequence (P21396 1-526): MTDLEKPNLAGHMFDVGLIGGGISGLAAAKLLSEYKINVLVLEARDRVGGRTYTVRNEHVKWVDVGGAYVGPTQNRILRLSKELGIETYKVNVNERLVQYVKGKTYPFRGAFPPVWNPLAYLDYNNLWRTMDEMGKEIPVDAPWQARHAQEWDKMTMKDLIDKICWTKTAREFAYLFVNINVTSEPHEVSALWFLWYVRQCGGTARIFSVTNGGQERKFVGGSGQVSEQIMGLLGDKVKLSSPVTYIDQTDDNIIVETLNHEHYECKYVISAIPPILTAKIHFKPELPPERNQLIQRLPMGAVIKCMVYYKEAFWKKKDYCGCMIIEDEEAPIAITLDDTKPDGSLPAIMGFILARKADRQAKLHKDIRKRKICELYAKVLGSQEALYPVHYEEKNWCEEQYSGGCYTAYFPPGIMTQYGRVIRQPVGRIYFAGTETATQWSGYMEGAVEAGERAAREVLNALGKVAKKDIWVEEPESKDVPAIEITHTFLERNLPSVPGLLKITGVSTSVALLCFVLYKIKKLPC

[2] = system: muscarinic receptor for the central nervous system; experiment: muscarinic receptor for the central nervous system (M1 Central), [3H] QNB, rat cortical membranes; format: binding; conditions: 10^-4; 100 µM
Experimental: Fourteen additional bioassays were preformed on either extracts, fractions or reference compounds for this botanical. To measure inhibition of [^3 H] PK11195 to the benzodiazepine receptor (BDZ) a partially purified receptor preparation was made from rat kidney membranes. The final radioactive ligand concentration was 1 nM and non-specific binding was measured using 200 nM cold PK11195. The substances, receptor and ligand were reacted in 50 mM Tris-HCL (pH 7.7) at 0-4° C. for 60 minutes. The reaction was terminated by rapid filtration of the samples through glass fiber filters. […] The inhibition of [^3 H] pinrenzepine to the muscarinic M1 receptor (M1) by the substances was measured using a partially purified receptor from bovine striatal membranes. The final hot ligand concentration was 1 nM and non-specific binding was determined in the presence of 100 nM atropine. […] The reactions were terminated by rapid vacuum filtration of the reaction mixture through glass fiber filters. […] To assay for biological activity for the muscarinic receptor for the central nervous system, receptor was partially purified from rat cortical membranes. […] Non-specific binding was determined in the presence of 100 nM atropine. […] Non-specific binding was determined using 1 mM NMDA. […] Non-specific binding was determined using 100 μM AMPA.

stability = format: physicochemical; conditions: our data
Excerpt: Some botanicals, such as St. John's Wort, are both temperature and light sensitive. For this type of botanical the material should be dry packed with a refrigerant or shipped under refrigeration and protected from light and air. […] Stability (in absence of air) was increased to six months in a preparation extracted with ethanol.
Phloroglucinola include hyperforin (prenylated derivative of phloroglucinol), adhyperforin (similar to the bitter principle of hops, adhumulone).

Sindbis virus = conditions: cited from earlier work
NMDA = experiment: Receptor Binding by Hypericin, NMDA
Experimental: (§1) Through an NIMH screening contract (NovaScreen™, Baltimore, Md.) a commercially available crude extract from the fresh flowers and buds of Hypericum perforatum [1:1.5; hydro-alcohol (40:60) made from flowering tops; Herb Pharm] containing ~0.1% hypericin was dried under vacuum, dissolved in 4% DMSO, and diluted to an initial concentration of 50 mg/ml for in vitro screening in a battery of 39 receptor assays and two enzyme systems (Table 5, below).

[3] = system: equine infectious anemia virus; conditions: cited from earlier work
protein kinase C = conditions: cited from earlier work
MAO = conditions: cited from earlier work
[4] = system: human immunodeficiency virus type 1 (HIV-1); conditions: cited from earlier work
muscarinic M1 receptor = biological target: T2, muscarinic M1 receptor (Bos taurus, UniProt F1N5C5); experiment: muscarinic M1 binding, [3H]-Pirenzepine, bovine striatal membranes; conditions: read-out: MuscM1 Binding % inhibition (PharmaPrint range)
T2 construct: Using receptors derived from bovine striatal membranes; from tissue; host or cells: bovine striatal membranes
T2 sequence (F1N5C5 1-460): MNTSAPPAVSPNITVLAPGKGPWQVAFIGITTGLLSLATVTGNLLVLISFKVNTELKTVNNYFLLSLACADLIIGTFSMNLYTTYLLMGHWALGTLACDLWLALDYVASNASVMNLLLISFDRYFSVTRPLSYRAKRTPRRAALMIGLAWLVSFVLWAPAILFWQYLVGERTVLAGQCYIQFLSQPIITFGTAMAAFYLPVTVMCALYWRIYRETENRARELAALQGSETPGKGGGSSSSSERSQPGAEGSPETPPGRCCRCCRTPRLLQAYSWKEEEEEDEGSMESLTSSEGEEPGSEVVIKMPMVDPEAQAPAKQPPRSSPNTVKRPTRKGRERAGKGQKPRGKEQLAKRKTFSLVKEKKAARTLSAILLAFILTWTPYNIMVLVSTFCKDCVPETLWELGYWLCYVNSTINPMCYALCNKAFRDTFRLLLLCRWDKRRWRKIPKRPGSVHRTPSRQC

serotonin transporter = biological target: T3, serotonin transporter (Rattus norvegicus, UniProt P31652); experiment: serotonin transporter assay, [125I]-RTI-121, rat cerebral cortical membranes; format: binding
T3 construct: Cerebral cortical membranes derived from male Wistar rats; from tissue; host or cells: cerebral cortical membranes of male Wistar rats
T3 sequence (P31652 whole entry): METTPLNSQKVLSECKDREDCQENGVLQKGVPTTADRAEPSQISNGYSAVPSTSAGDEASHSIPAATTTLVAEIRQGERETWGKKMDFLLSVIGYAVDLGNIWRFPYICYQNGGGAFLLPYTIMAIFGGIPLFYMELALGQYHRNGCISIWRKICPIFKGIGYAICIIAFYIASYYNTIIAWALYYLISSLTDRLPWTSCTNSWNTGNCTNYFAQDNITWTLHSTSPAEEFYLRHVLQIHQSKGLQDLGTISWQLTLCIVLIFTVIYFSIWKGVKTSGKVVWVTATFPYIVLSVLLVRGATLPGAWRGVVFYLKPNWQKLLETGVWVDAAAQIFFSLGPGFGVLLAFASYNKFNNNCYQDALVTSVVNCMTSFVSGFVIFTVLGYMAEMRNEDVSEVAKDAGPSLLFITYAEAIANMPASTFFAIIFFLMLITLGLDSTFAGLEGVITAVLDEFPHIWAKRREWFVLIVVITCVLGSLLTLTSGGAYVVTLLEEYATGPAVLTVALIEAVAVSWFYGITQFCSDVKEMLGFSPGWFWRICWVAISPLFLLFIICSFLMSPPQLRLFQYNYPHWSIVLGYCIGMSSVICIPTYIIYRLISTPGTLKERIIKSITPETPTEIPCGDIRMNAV

MAOB = experiment: NIMH/NovaScreen screen, MAOB; format: biochemical; conditions: up to 0.1 mM
Experimental: as §1

Question: With `Cc1cc(O)c2c(=O)c3c(O)cc(O)c4c5c(O)cc(O)c6c(=O)c7c(O)cc(C)c8c1c2c(c34)c(c78)c65` [Hypericin, hypericin] as the molecule, how does the NOS (Nitric oxide synthetase) read?
Answer: The NOS was 48%.

Question: And the “antiviral activity in vivo” value [1]?
Answer: Its value is “show antiviral activity in vivo (mice)”.

Question: What about the inhibition at 10 µM (MAOA; 10 μM) of the same molecule?
Answer: The inhibition at 10 µM was 27%.

Question: What about the inhibition at 100 µM (MAOA; 100 μM) of the same molecule?
Answer: The inhibition at 100 µM was 20.8%.

Question: And the “MAOA inhibition” value (MAOA; up to 0.1 mM)?
Answer: The value was “lacked significant MAOA or MAO-^B inhibition”.

Question: What about the “M1 Central” value [2] of the same molecule?
Answer: Its value is 55%.

Question: What about the stability in solution (stability) of the same molecule?
Answer: The stability in solution was “unstable in solution”.

Question: And the “activity against Sindbis virus” value (Sindbis virus)?
Answer: The value was “Activity has also been reported”.

Question: And the “% Inhibition NMDA” value (NMDA; 1 μM)?
Answer: The value was 48.5%.

Question: What about the “% Inhibition NMDA” value (NMDA; 10 μM) of the same molecule?
Answer: The value was 81.7%.

Question: What about the “% Inhibition NMDA” value (NMDA; 100 μM) of the same molecule?
Answer: The value was -20.7%.

Question: What about the “% Inhibition NMDA” value (NMDA; .001 μM) of the same molecule?
Answer: The value was 10.5%.

Question: And the “% Inhibition NMDA” value (NMDA; .01 μM)?
Answer: The value was 24.5%.

Question: What about the “% Inhibition NMDA” value (NMDA; .1 μM) of the same molecule?
Answer: Its value is -0.3%.

Question: What about the Ki (NMDA; read-out: Ki NMDA) of the same molecule?
Answer: The Ki was about 1 µM.

Question: And the Ki (NMDA; read-out: ~Ki NMDA (Table 7))?
Answer: Its Ki is about 1.1 µM.

Question: And the “activity against equine infectious anemia virus” value [3]?
Answer: The value was “Activity has also been reported”.

Question: And the “protein kinase C IC50” value (protein kinase C)?
Answer: Its value is 1.7 mg/L.

Question: And the “concentration inhibiting MAO” value (MAO; Suzuki et al., 80% purity)?
Answer: The value was 50 µg/mL.

Question: And the “confirmation of MAO inhibition” value (MAO)?
Answer: The value was “failed to confirm this effect”.

Question: What about the “inhibition of HIV-1” value [4] of the same molecule?
Answer: Its value is “inhibit”.

Question: And the inhibition at 100 µM (muscarinic M1 receptor)?
Answer: The inhibition at 100 µM was 80 ± 20%.

Question: And the inhibition at 100 µM (serotonin transporter; 10^-4, read-out: Sero)?
Answer: Its inhibition at 100 µM is 51%.

Question: What about the inhibition at 100 µM (serotonin transporter; 10^-4 M, read-out: Sero % inhibition (PharmaPrint range)) of the same molecule?
Answer: The inhibition at 100 µM was 51 ± 2%.

Question: What about the IC50 (serotonin transporter; read-out: Sero (concentration)) of the same molecule?
Answer: Its IC50 is 4 µM.

Question: What about the “MAO-B inhibition” value (MAOB) of the same molecule?
Answer: The value was “lacked significant MAOA or MAO-^B inhibition”.
